# Columns and labels:
# [1] = test system: fibroblast; test: Inhibition of fibroblast, side-by-side comparison of substituents; assay type: cell-based; conditions: structural formula II, n=1
# [2] = test system: Kidney Fibroblast; test: MTT proliferation assay, mouse kidney fibroblast; assay type: cell-based
# Method: (§1) Cell proliferation was measured by MTT assay. DMEM with 10% fetal serum was used as cell culture medium. The cells were prepared in suspension (1×10^5/ml), and 100 μL of the suspension was transferred to each well of a 96 wells plate. Once the cells were attached to the plastic, the culture was changed to serum free medium and continued for another 24 hours. The serum free medium was aspirated, and various concentrations of 1-(3′-fluorophenyl)-5-methyl-2(1H)-pyridone (AKF-PD) 1-(3′-bromophenyl)-5-methyl-2(1H)-pyridone (AKF-BR) or PIRFENIDONE (PFD) in 10% serum medium were added into each well with 5 replicates for each concentration. The cells were stained with MTT (10 μL per well) at 24, 48, and 72 hours post drug treatment. After 4 hrs of incubation, the medium with MTT was aspirated from each well. One hundred μL MTT solvent was added to each well for 15 min. The dissolved MTT was then measured with a plate reader at 570 nm.
# [3] = test system: Rat Pulmonary Fibroblasts; test: MTT proliferation assay, rat pulmonary fibroblasts; assay type: cell-based
# Method: as §1, with “and incubated” for “and continued”, “hours. Then, the” for “hours. The”, “(AKF-PD) or 1-(3′-bromophenyl)-5-Methyl-2(1H)-Pyridone” for “(AKF-PD) 1-(3′-bromophenyl)-5-methyl-2(1H)-pyridone (AKF-BR)”, “24, or 48” for “24, 48, and 72”, “15 min, and the” for “15 min. The”, “was” for “was then”
# [4] = test system: ICR mice injected with bleomycin; test: Bleomycin-induced mouse pulmonary fibrosis, histological score of lung tissue; assay type: in vivo; conditions: AKF-PD and PFD 500 mg/kg, captopril 12.5 mg/kg by gavage day 1 to 28, Szapiel's method
# Method: Under regular care condition, 7-10 weeks old, male, institute of cancer research (ICR) mice, weight 28-39 g, were randomly grouped as normal control, disease, disease/AKF-PD, disease/PFD and disease Captopril group.
# Control group was injected with normal saline once day from day 2 to 15 days. Disease, disease/AKF-PD, disease/PFD and disease/captopril groups were injected with bleomycin once day from day 2 to 15. Control and disease groups were given 0.5% CMC by gavage once a day from day 1 to day 28. 500 mg/kg of AKF-PD CMC suspension and PD CMC suspension and 12.5 mg/kg captopril in saline were administered to respective groups by gavage once day from day 1 to day 28. All animals were sacrificed on day 29 and their lungs were removed for pathological (HE staining) examination.
# Histological scoring for the lung tissue was done according Szapiel's method.
# [5] = test system: SD rat, Unilateral Ureteral Obstruction (UUO) model; test: Rat UUO model of renal interstitial fibrosis, histological score (Example 8); assay type: in vivo; conditions: UUO rats; AKF-PD 500 mg/kg/d, Enalapril 10 mg/kg/d by gavage; 14 days post surgery; Radford's method
# Method: Anti-fibrotic effect of AKF-PD was tested on a SD rat model for renal interstitial fibrosis induced by surgical ligation of single side ureter (Unilateral Ureteral Obstruction, UUO, model). Eight weeks old male SD rats (180 g˜220 g) were randomly divided into sham surgical group, disease model group, Enalapril (10 mg/kg/d) group and AKF-PD (500 mg/kg/d) group. […] The animals of the sham surgical group experienced the same surgical procedure except the ligation step. The respective drugs were administrated by gavage to rats in the groups of Enalapril and AKF-PD from one day prior to the procedure to 14 days post surgical procedure. Normal saline was administrated in a similar fashion to the rats in the groups of disease model and sham surgical. The animals were sacrificed 14 days after surgical procedure and their left kidney were removed for pathological (HE staining) examination. Histological scoring for interstitial compartment was done according to Radford's method (Radford et al., Predicting renal outcome in IgA nephropathy. J. Am. Soc. Nephrol. 8: 199-207(1997)).
# [6] = test system: Kun Ming (KM) mice infected with Schistosoma miracidium; test: Schistosomial liver fibrosis in Kun Ming mice, egg granuloma area and immunohistology; assay type: in vivo; conditions: all after Pyquiton 650 mg/kg 4 days, AKF-PD 500 mg/kg daily gavage, γ-interferon 50,000 unit daily i.m., 8 weeks
# Text: Kun Ming (KM) mice were infected with Schistosoma miracidium to induce schistosomial liver fibrosis. […] Ten Schistosoma miracidium were placed on shaved abdominal skin of each mouse for infection. […] Five hundred mg/kg AKF-PD were given daily by gavage to the disinfected mice of infected/AKF-PD group. The disinfected mice were given (i.m.) 50,000 unit γ-interferon daily. […] Drug or normal saline treatment was continued for 8 weeks. All mice were sacrificed one week after discontinue of drug treatment, and the left lobe of liver from each mouse was taken for pathological examination. Examination of HE-stained slices of liver tissue were carried out as follows. In general, after 16 weeks of Schistosoma miracidia infection, the area of schistosomo egg granuloma would directly correlate to the severity of liver fibrosis. Therefore, the area of schistosomo egg granuloma was measured using a high-resolution, color pathology graphic analyzer (HPIAS-1000). The sum of area of 5 granuloma with abundant eggs and the sum of area of 5 granuloma with few eggs were measured for each slice.
molecule,measurement,setting,value
Cc1ccc(=O)n(-c2cccc(I)c2)c1 [1-(3′-iodophenyl)-5-methyl-2(1H)-pyridone],activity inhibiting fibroblast,[1],activities inhibiting fibroblast
Cc1cccc(-n2cc(C)ccc2=O)c1 [5-methyl-1-(3′-methylphenyl)-2(1H)-pyridone],activity inhibiting fibroblast,[1],activities inhibiting fibroblast
"Cc1ccc(=O)n(-c2cccc(Br)c2)c1 [AKF-BR, 1-(3′-bromophenyl)-5-methyl-2(1H)-pyridone]",inhibition of proliferation of kidney fibroblast,[2],capable of inhibiting the proliferation of kidney fibroblast
same,Optical Density at 570 nm,"[2]; 100 μg/ml, 24 h",0.5937 ± 0.0307
same,Optical Density at 570 nm,"[2]; 100 μg/ml, 48 h",0.5811 ± 0.0161
same,Optical Density at 570 nm,"[2]; 100 μg/ml, 72 h",0.5363 ± 0.0158
same,Optical Density at 570 nm,"[2]; 500 μg/ml, 24 h",0.5895 ± 0.0253
same,Optical Density at 570 nm,"[2]; 500 μg/ml, 48 h",0.5418 ± 0.0221
same,Optical Density at 570 nm,"[2]; 500 μg/ml, 72 h",0.4731 ± 0.0249
same,Optical Density at 570 nm,"[2]; 1000 μg/ml, 24 h",0.5723 ± 0.0254
same,Optical Density at 570 nm,"[2]; 1000 μg/ml, 48 h",0.5192 ± 0.0178
same,Optical Density at 570 nm,"[2]; 1000 μg/ml, 72 h",0.4161 ± 0.0249
same,order of inhibitory effect,[2]; kidney fibroblast,AKF-PD>AKF-BR>pirfenidone
same,suppression of proliferation of rat pulmonary fibroblasts,[3],could suppress proliferation of rat pulmonary fibroblasts
same,Optical Density at 570 nm,"[3]; 100 μg/ml, 24 h",0.1654 ± 0.0143
same,Optical Density at 570 nm,"[3]; 100 μg/ml, 48 h",0.1475 ± 0.0211
same,Optical Density at 570 nm,"[3]; 500 μg/ml, 24 h",0.1342 ± 0.0237
same,Optical Density at 570 nm,"[3]; 500 μg/ml, 48 h",0.1292 ± 0.0178
same,Optical Density at 570 nm,"[3]; 1000 μg/ml, 24 h",0.1204 ± 0.0176
same,Optical Density at 570 nm,"[3]; 1000 μg/ml, 48 h",0.1201 ± 0.0342
same,order of inhibitory effect,[3]; rat pulmonary fibroblasts,AKF-PD>AKF-BR>pirfenidone
same,activity inhibiting fibroblast,[1],activities inhibiting fibroblast
C[C@H](CS)C(=O)N1CCC[C@H]1C(=O)O [Captopril],"Histological Score for Lung Tissue, Mean",[4],2.7143
"CCOC(=O)[C@H](CCc1ccccc1)N[C@@H](C)C(=O)N1CCC[C@H]1C(=O)O [Enalapril, reference compound]",Histological Score for Interstitial Compartment,[5],9.21 ± 0.64
"γ-interferon: γ-interferon given i.m. 50,000 unit daily to disinfected mice (protein, UniProt P01580 23-155, looked up) Interferon gamma: HGTVIESLESLNNYFNSSGIDVEEKSLFLDIWRNWQKDGDMKILQSQIISFYLRLFEVLKDNQAISNNISVIESHLITTFFSNSKAKKDAFMSIAKFEVNNPQVQRQAFNELIRVVHQLLPESSLRKRKRSRC","Schistosomo Egg Granuloma Area, Mean",[6]; granuloma with abundant eggs,83706.79 μm^2
same,"Schistosomo Egg Granuloma Area, Mean",[6]; granuloma with few eggs,32407.14 μm^2

# — patent publication US20090005424A9, “Composition and Method for Treating Fibrotic Diseases” (priority 2005, published 2009)
